The text below walks through data of patent publication US11466013B2 (Betta Pharmaceuticals Co., LTD, priority 2018, dated 2022).

The target of one experiment is ERK2 (Homo sapiens, UniProt P28482). In words: Kinase assay (Caliper, FAM-labeled peptide), ERK2. The format is biochemical. As for the experimental part: (§1) The compound was diluted to the desired concentration with DMSO, transferred 100 μL to a 96-well plate, and performed a gradient dilution 10 μL of compound from each well was taken and mixed with 90 μL of kinase buffer, and then transferred 5 μL from each well to a 384-well plate. Kinase and FAM-labeled peptide and ATP were added to 1× kinase alkaline buffer to obtain 2.5× enzyme solution and 2.5× peptide solution, 10 μL of 2.5× enzyme solution was added to the 384-well assay plate. After incubating for 10 minutes at room temperature, 10 μL of 2.5× peptide solution was added to the 384-well plate. After reacting for a specific time at […], 25 μL of termination buffer was added to stop reaction. After reading the collected data on Caliper, the data was converted to inhibition percentage. Inhibition percentage=(maximum value−conversion value)/(maximum value−minimum value)*100.
(§2) The “maximum” is the DMSO control, the “minimum” indicates the low control.
(§3) Graphpad Prism software was used to perform curve fitting and obtain IC50 value.

The target in the next experiment is ERK1 (Homo sapiens, UniProt P27361). In words: Kinase assay (Caliper, FAM-labeled peptide), ERK1. The format is biochemical. As for the experimental part:
as §1, §2, §3

The structures appear in SMILES notation.

Chain of ERK2 (P28482 whole entry): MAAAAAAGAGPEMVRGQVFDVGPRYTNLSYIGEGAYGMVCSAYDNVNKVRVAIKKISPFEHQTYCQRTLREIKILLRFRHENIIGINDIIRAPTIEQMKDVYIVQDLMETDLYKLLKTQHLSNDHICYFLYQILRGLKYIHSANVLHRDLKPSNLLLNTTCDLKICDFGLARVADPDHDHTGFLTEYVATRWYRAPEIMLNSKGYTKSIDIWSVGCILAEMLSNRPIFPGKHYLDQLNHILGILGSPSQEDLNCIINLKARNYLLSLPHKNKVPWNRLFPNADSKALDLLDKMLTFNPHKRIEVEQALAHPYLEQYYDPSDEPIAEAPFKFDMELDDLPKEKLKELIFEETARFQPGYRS
Chain of ERK1 (P27361 whole entry): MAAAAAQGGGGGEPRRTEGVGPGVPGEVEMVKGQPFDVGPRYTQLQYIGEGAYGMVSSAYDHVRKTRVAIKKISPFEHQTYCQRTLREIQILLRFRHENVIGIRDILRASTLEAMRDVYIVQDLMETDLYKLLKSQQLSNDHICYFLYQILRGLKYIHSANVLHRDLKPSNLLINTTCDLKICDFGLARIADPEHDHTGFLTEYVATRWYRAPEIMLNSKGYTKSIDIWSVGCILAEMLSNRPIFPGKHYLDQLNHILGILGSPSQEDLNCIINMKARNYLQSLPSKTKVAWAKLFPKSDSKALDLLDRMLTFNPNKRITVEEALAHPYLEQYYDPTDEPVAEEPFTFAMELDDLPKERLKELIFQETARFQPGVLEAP

Consider `Cc1ccccc1Nc1ncc(C)c(-c2cc3n(c2)CCN(Cc2cc(F)ccc2CO)C3=O)n1` [Example 49], for which the IC50 (usually the concentration needed to halve the response being measured) was found to be 0.8 nM on ERK2 and 0.9 nM against ERK1. The matching figures for `CC(C)Nc1cc(-c2cnc(C(=O)NCc3ccccc3CO)s2)c(Cl)cn1` [Example 3, 5-(5-chloro-2-(isopropylamino)pyridin-4-yl)-N-(2-(hydroxymethyl)benzyl) thiazole-2-formamide]: 0.7 nM and 0.9 nM.

As to `CC(C)Nc1cc(-c2cc3n(c2)CC2(COCOC2)CN(Cc2cc(F)ccc2CO)C3=O)c(Cl)cn1` [Example 43, 8-(5-Chloro-2-(isopropylamino)pyridin-4-yl)-2-(5-fluoro-2-(hydroxymethyl)benzyl)-2,3-dihydro-1H,5H-spiro[pyrrolo[1,2-a][1,4]diazepine-4,5′-[1,3]dioxane]-1-one], the results for the IC50 at ERK2 and at ERK1 were 0.5 nM and 0.6 nM, respectively. On to `COC[C@H]1Cn2cc(-c3cc(NC4CCOC(C)(C)C4)ncc3Cl)cc2C(=O)N1Cc1cc(F)ccc1CO` (stereo partly drawn) [Example 78, (3R)-7-(5-chloro-2-((2,2-dimethyltetrahydro-2h-pyran-4-yl)amino)pyridine-4-yl)-2-(5-fluoro-2-(hydroxymethyl)benzyl)-3-(methoxymethyl)-3,4-dihydropyrrolo[1,2-a] pyrazine-1(2H)-one], for which the IC50 against ERK2 worked out at 1.5 nM; on ERK1, 0.87 nM.

Regarding `COC[C@H]1Cn2cc(-c3cc(NC4COC4)ncc3Cl)cc2C(=O)N1Cc1cc(F)ccc1CO` [Example 60, (R)-7-(5-chloro-2-(oxacyclobutane-3-ylamino)pyridine-4-yl)-2-(5-fluoro-2-(hydroxymethyl)benzyl)-3-(methoxymethyl)-3,4-dihydropyrrolo[1,2-a] pyrazine-1(2H)-one], the IC50 against ERK2 came out at 0.46 nM; at ERK1, 0.54 nM. On the same counts, the results for `O=C1c2cc(-c3cc(NC4CCOC4)ncc3Cl)cn2CCN1Cc1cc(F)ccc1CO` (stereo not drawn) [Example 31, 7-(5-Chloro-2-((tetrahydrofuran-3-yl)amino)pyridin-4-yl)-2-(5-fluoro-2-(hydroxymethyl)benzyl)-3,4-dihydropyrrolo[1,2-a]pyrazine-1(2H)-one] are 0.32 nM and 0.3 nM. On the same counts, the results for `COC[C@H]1Cn2cc(-c3cc(NC(=O)c4csc(C)n4)ncc3Cl)cc2C(=O)N1Cc1cc(F)ccc1CO` [Example 117, (R)-N-(5-chloro-4-(2-(5-fluoro-2-(hydroxymethyl)benzyl)-3-(methoxymethyl)-1-oxo-1,2,3,4-tetrahydropyrrolo [1,2-a]pyrazin-7-yl)pyridine-2-yl)-2-methylthiazol-4-formamide] are 1 nM and 1.2 nM. The matching figures for `COC[C@H]1Cn2cc(-c3cc(Nc4cc(C)on4)ncc3Cl)cc2C(=O)N1Cc1cc(F)ccc1CO` [Example 80, (R)-7-(5-chloro-2-((5-Methylisoxazole-3-yl)amino)pyridine-4-yl)-2-(5-fluoro-2-(hydroxymethyl)benzyl)-3-(methoxymethyl)-3,4-dihydropyrrolo[1,2-a] pyrazine-1(2H)-one]: 0.68 nM and 0.73 nM.

As for `COC[C@H]1Cn2cc(-c3c(Cl)cnc(Nc4ccnn4C)c3F)cc2C(=O)N1Cc1cc(F)ccc1CO` [Example 47, (H)-7-(5-chloro-3-fluoro-2-((1-methyl-1H-pyrazol-5-yl)amino)pyridin-4-yl)-2-(5-fluoro-2-(hydroxymethyl)benzyl)-3-(methoxymethyl)-3,4-dihydropyrrolo[1,2-a]pyrazine-1(2H)-ketone], the IC50 against ERK2 worked out at 0.9 nM.

At ERK2, `COC[C@H]1Cn2cc(-c3cc(Nc4c(C)cnn4C)ncc3Cl)cc2C(=O)N1Cc1cc(F)ccc1CO` [Example 97, (R)-7-(5-chloro-2-((1,4-dimethyl-1h-pyrazole-5-yl)amino)pyridine-4-yl)-2-(5-fluoro-2-(hydroxymethyl)benzyl)-3-(methoxymethyl)-3,4-dihydropyrrolo[1,2-a] pyrazine-1(2H)-one] had an IC50 of 0.97 nM.
